# pIC50: −log10 of the molar value. Where two headings read alike, the source gives them in different places.
# What was measured:
# [1] = system: SW48 cells; test: Proliferation assay SW48 (CellTiterGlo); format: cell-based; conditions: Homo sapiens, SW48, 96 h, read-out: Proliferation Assay SW48 GI50
# From the text: (§1) The colon carcinoma cell lines SW48 (RRID: CVCL_1724), HCT 116 (RRID: CVCL_0291) and SNU-407 (RRID: CVCL_5058) were obtained from ATCC. The WRN-knockdown insensitive colon carcinoma cell line DLD-1 (RRID: CVCL_0248) was obtained from the Korean Cell Line Bank (KCLB), and used to generate a derivative in which the endogenous WRN gene copies were knocked out by CRISPR-mediated editing using standard CRISPR methods. The resulting cell line, DLD1-WRN-KO, was used to assess potential off-target compound effects.
# SW48, SNU-407 and DLD1-WRN-KO cells were cultured in growth medium composed of RPMI-1640 (Amimed Cat #1-41F22-1), 2 mM L-Glutamine (Amimed Cat #5-10K50), 10 mM HEPES (Gibco Cat #15630-056), 1 mM sodium pyruvate (Amimed Cat #5-60F00-H), 1× Penicillin-Streptomycin (Amimed Cat #4-01F00-H) and 10% fetal calf serum (Amimed Cat #2-01F30-G, Lot #LB11566P). HCT 116 cells were cultured in growth medium composed of McCoys 5A (Amimed catalog #1-18F01-1), 2 mM L-Glutamine (Amimed Cat #5-10K50), 1× Penicillin-Streptomycin (Amimed Cat #4-01F00-H) and 10% fetal calf serum (Amimed Cat #2-01F30-G, Lot #LB11566P). All cells were maintained at 37° C. in a humidified 5% CO2 incubator.
# Following filtration through a Steriflip-NY 20 μm filter (Millipore Cat #SCNY00020), trypsinized cells were seeded in 100 microliters growth medium at 2,000 (SW48) or 1,500 (SNU-407, DLD1-WRN-KO, HCT 116) cells/well into white, clear-bottom 96-well plates (Costar Cat #3903). Three replicate plates were prepared for each compound treatment condition. In addition, one plate (termed “day 0”) was prepared to quantify the number of viable cells at the time of compound addition. Following overnight incubation at 37° C. in a humidified 5% CO2 atmosphere, eight 3-fold serial dilutions of a given compound stock (obtained at a concentration of 10 mM in DMSO and stored at 4° C.) were dispensed directly into each of the triplicate assay plates using a HP 300D non-contact Digital Dispenser (TECAN). The final concentration of DMSO was normalized to 0.1% in all wells. 96 hours after compound addition, cellular ATP levels as a surrogate for cell viability was assessed following addition of 50 microliters CellTiterGlo (Promega Cat #G7573) reagent and luminescence quantification on a MPLEX multi-mode plate-reader (TECAN) following a 10 minute incubation at room temperature. The number of viable cells in the “day 0” plate were quantified identically on the day of compound addition.
# For data analysis, the assay background signal that was determined in wells containing medium, but no cells, was subtracted from all other data points prior to further calculations. The extent of growth inhibition and potential cell kill was assessed by comparing the ATP levels (measured using CellTiterGlo, Promega) in compound-treated cells with those present at the time of compound addition. To this end, the following conditional concept was programmatically applied in HELIOS, an in-house software applying a multi-step decision tree to arrive at optimal concentration response curve fits (Gubler et al, SLAS DOI: 10.1177/2472555217752140) to calculate % growth (% G) for each compound-treated well: % G=(T−V0)/V0))*100 when T<V0, and % G=(T−V0)/(V−V0)))*100 when T≥V0, where V0 is the viability level at time of compound addition, while V and T represent vehicle-control and compound-treated viability levels, respectively, at the end of the compound incubation. 100%, 0% and −100% signify absence of growth inhibition, growth stasis, and complete cell kill, respectively. Compound concentrations leading to half-maximal growth inhibition (GI50) and residual cell viability at the highest tested compound concentration (Data (cmax), expressed in percent) were routinely calculated. Data analysis can also be carried out using commercially available software designed to derive IC50 values using 4-parameter fits (e.g. GraphPad Prism, XL fit). […]
# [2] = system: DLD1-WRN-KO cells; test: Proliferation assay DLD1-WRN-KO (CellTiterGlo, off-target effects); format: cell-based; conditions: 96 hours, geometric mean of at least 2
# Method: as §1, with “The” for “The colon carcinoma cell lines SW48 (RRID: CVCL_1724), HCT 116 (RRID: CVCL_0291) and SNU-407 (RRID: CVCL_5058) were obtained from ATCC. The”, “effects. […]” for “effects.”
# Three replicate plates were prepared for each compound treatment condition. In addition, one plate (termed “day 0”) was prepared to quantify the number of viable cells at the time of compound addition. Following overnight incubation at 37° C. in a humidified 5% CO2 atmosphere, eight 3-fold serial dilutions of a given compound stock (obtained at a concentration of 10 mM in DMSO and stored at 4° C.) were dispensed directly into each of the triplicate assay plates using a HP 300D non-contact Digital Dispenser (TECAN). The final concentration of DMSO was normalized to 0.1% in all wells. 96 hours after compound addition, cellular ATP levels as a surrogate for cell viability was assessed following addition of 50 microliters CellTiterGlo (Promega Cat #G7573) reagent and luminescence quantification on a MPLEX multi-mode plate-reader (TECAN) following a 10 minute incubation at room temperature. The number of viable cells in the “day 0” plate were quantified identically on the day of compound addition.
# For data analysis, the assay background signal that was determined in wells containing medium, but no cells, was subtracted from all other data points prior to further calculations. The extent of growth inhibition and potential cell kill was assessed by comparing the ATP levels (measured using CellTiterGlo, Promega) in compound-treated cells with those present at the time of compound addition. […] 100%, 0% and −100% signify absence of growth inhibition, growth stasis, and complete cell kill, respectively. Compound concentrations leading to half-maximal growth inhibition (GI50) and residual cell viability at the highest tested compound concentration (Data (cmax), expressed in percent) were routinely calculated. Data analysis can also be carried out using commercially available software designed to derive IC50 values using 4-parameter fits (e.g. GraphPad Prism, XL fit). The reported GI50 values are the geometrical means of at least 2 independent replicates.
# [3] = biological target: T1, WRN helicase (aa N517-P1238) (Homo sapiens, UniProt Q14191); test: WRN ATPase assay (DNA dependent ATP hydrolysis, ADP-Glo); format: biochemical; conditions: 3 hours pre-incubation, 300 micromolar ATP, FLAP26 DNA; geometric mean of at least 2
# T1 construct: The core helicase motif of the WRN protein (aa N517-P1238) was produced for this assay; His (N); ZZ (N); 3C protease cleavage site (N); made in house; host or cells: Sf21 insect cells (baculovirus; virus and BIICs made in SF9)
# From the text: An ATPase assay was set up to measure the DNA dependent ATP hydrolysis activity of WRN helicase. This assay was used also to assess the inhibition properties of compounds of the invention on DNA dependent WRN ATPase activity.
# The core helicase motif of the WRN protein (aa N517-P1238) was produced for this assay (protein production as described above). […] The ADP-Glo assay kit (Promega, Madison, WI) allowing the quantification of ADP produced in ATP hydrolysis reactions was used for setting up this assay.
# Time course experiments were first performed in order to determine the best enzymatic assay conditions (including buffer conditions, reaction time and concentrations of protein, ATP and DNA substrates). A typical reaction consists of 10 nM WRN protein, 0.2 nM FLAP26, and 300 micromolar ATP in the following assay buffer: 30 mM Tris pH7.5, 2 mM MgCl2, 0.02% BSA, 50 mM NaCl, 0.1% pluronic F127 prepared in DNAse free water.
# To evaluate the inhibition properties of compounds of the invention, serial dilutions were prepared in DMSO (10 half log dilutions from a 10 mM DMSO solution). […] The reaction was stopped with the addition of 5 microliters of the first ADP-Glo reagent and incubated for one hour to remove the excess amount of ATP. Afterwards, 10 microliters of ATP detection reagent was added and incubated for an additional hour before reading. Luminescence output was recorded using Tecan 1000 reader, with 5 minutes delay before reading. Each concentration of compound was tested in duplicates in the assay plate.
# Following normalization of activity values for the wells to % inhibition (% inhibition=[(high control-sample)/(high control-low control)]×100), IC50 fitting was carried out from the duplicate determinations present on each plate according to [4]. Data analysis can also be carried out using commercially available software designed to derive IC50 values using 4-parameter fits (e.g. GraphPad Prism, XL fit). The reported IC50 values are the geometrical means of at least 2 independent replicates.
# [4] = SW48 colon carcinoma cells, 96 hours, CellTiterGlo, geometric mean of at least 2
# T1 sequence (Q14191 517-1238): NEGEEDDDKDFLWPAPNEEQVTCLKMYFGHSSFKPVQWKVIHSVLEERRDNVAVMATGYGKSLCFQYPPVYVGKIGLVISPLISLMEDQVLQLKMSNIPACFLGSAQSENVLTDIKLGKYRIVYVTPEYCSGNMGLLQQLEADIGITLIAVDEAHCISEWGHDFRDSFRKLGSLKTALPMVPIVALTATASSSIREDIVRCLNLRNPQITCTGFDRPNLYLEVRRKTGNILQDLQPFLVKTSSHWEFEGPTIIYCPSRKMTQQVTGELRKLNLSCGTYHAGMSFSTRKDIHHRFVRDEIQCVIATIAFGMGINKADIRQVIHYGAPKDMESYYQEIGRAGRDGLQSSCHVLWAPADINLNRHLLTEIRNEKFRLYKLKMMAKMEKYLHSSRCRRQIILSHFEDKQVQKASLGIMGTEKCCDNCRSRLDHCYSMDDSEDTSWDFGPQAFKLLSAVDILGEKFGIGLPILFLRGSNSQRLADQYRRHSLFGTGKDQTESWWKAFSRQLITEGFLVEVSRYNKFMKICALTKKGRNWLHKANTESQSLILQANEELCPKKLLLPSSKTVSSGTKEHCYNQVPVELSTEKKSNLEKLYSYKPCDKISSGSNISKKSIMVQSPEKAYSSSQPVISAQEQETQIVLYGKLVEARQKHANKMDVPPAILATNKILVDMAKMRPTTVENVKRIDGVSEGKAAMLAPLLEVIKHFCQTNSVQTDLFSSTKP
Compound,"GI50 [1, 4] [µM]",GI50 [2] [µM],pIC50 [3],GI50 [1] [µM]
"CC(=O)N1CCN(c2c(C)n(CC(=O)Nc3ccc(C(F)(F)F)cc3)c3nc(-c4ccc(F)cc4)nn3c2=O)CC1 [Example 124, 2-(6-(4-acetylpiperazin-1-yl)-2-(4-fluorophenyl)-5-methyl-7-oxo-[1,2,4]triazolo[1,5-a]pyrimidin-4(7H)-yl)-N-(4-(trifluoromethyl)phenyl) acetamide]",4,> 10,6.15,–
"CC(=O)N1CCN(c2c(C)n(CC(=O)Nc3ccc(C(F)(F)F)cc3)c3nc(-c4ccc(CN(C)C(=O)OC(C)(C)C)cc4)nn3c2=O)CC1 [Example 95, tert-butyl (4-(6-(4-acetylpiperazin-1-yl)-5-methyl-7-oxo-4-(2-oxo-2-((4-(trifluoromethyl)phenyl)amino)ethyl)-4,7-dihydro-[1,2,4]triazolo[1,5-a]pyrimidin-2-yl)benzyl)(methyl)carbamate]",2,> 10,6.10,–
"Cc1c(N2CCN(C(=O)c3cc(F)ccc3O)CC2)c(=O)n2nc(N3CCOCC3)nc2n1CC(=O)Nc1ccc(C(F)(F)F)cc1 [Example 151, 2-(6-(4-(5-fluoro-2-hydroxybenzoyl)piperazin-1-yl)-5-methyl-2-morpholino-7-oxo-[1,2,4]triazolo[1,5-a]pyrimidin-4(7H)-yl)-N-(4-(trifluoromethyl)phenyl)acetamide]",4,–,6.70,–
"Cc1c(N2CCN(C(=O)NNC(=O)C(F)(F)F)CC2)c(=O)n2nc(C3=CCOCC3)nc2n1CC(=O)Nc1ccc(C(F)(F)F)cc1 [Example 165, 2-(2-(3,6-dihydro-2H-pyran-4-yl)-5-methyl-7-oxo-6-(4-(2-(2,2,2-trifluoroacetyl)hydrazine-1-carbonyl)piperazin-1-yl)-[1,2,4]triazolo[1,5-a]pyrimidin-4(7H)-yl)-N-(4-(trifluoromethyl)phenyl)acetamide]",> 10,–,7.05,–
"CCc1c(N2CCN(C(=O)c3nccc4cc[nH]c34)CC2)c(=O)n2nc(C3=CCOCC3)nc2n1CC(=O)Nc1ccc(C(F)(F)F)cc1C [Example 41, 2-(6-(4-(1H-pyrrolo[2,3-c]pyridine-7-carbonyl)piperazin-1-yl)-2-(3,6-dihydro-2H-pyran-4-yl)-5-ethyl-7-oxo-[1,2,4]triazolo[1,5-a]pyrimidin-4(7H)-yl)-N-(2-methyl-4-(trifluoromethyl)phenyl)acetamide]",–,–,–,0.1

# The next lines start with the values.
"GI50 [1, 4] [µM]",GI50 [2] [µM],pIC50 [3],GI50 [1] [µM],Compound
6,> 10,6.22,–,"CC(=O)N1CCN(c2c(C3CC3)n(CC(=O)Nc3ccc(C(F)(F)F)cc3)c3nc(C4=CCOCC4)nn3c2=O)CC1 [Example 147, 2-(6-(4-acetylpiperazin-1-yl)-5-cyclopropyl-2-(3,6-dihydro-2H-pyran-4-yl)-7-oxo-[1,2,4]triazolo[1,5-a]pyrimidin-4(7H)-yl)-N-(4-(trifluoromethyl)phenyl)acetamide]"
4,> 10,6.22,–,"CC(=O)N1CCN(c2c(C)n(CC(=O)Nc3ccc(C(F)(F)F)c(F)c3)c3nc(C4=CCOCC4)nn3c2=O)CC1 [Example 90, 2-(6-(4-acetylpiperazin-1-yl)-2-(3,6-dihydro-2H-pyran-4-yl)-5-methyl-7-oxo-[1,2,4]triazolo[1,5-a]pyrimidin-4(7H)-yl)-N-(3-fluoro-4-(trifluoromethyl)phenyl)acetamide]"
2,–,–,–,"CC(=O)N1CCC(c2c(C)n(CC(=O)Nc3ccc(C(F)(F)F)cc3)c3nc(C4=CCCCC4)nn3c2=O)CC1 [Example 145, 2-(6-(1-acetylpiperidin-4-yl)-2-(cyclohex-1-en-1-yl)-5-methyl-7-oxo-[1,2,4]triazolo[1,5-a]pyrimidin-4(7H)-yl)-N-(4-(trifluoromethyl)phenyl)acetamide]"
3,–,–,–,"CCc1ccc(NC(=O)Cn2c(C)c(C3CCN(C(C)=O)CC3)c(=O)n3nc(C4=CCOCC4)nc23)cc1Cl [Example 144, 2-(6-(1-acetylpiperidin-4-yl)-2-(3,6-dihydro-2H-pyran-4-yl)-5-methyl-7-oxo-[1,2,4]triazolo[1,5-a]pyrimidin-4(7H)-yl)-N-(3-chloro-4-ethylphenyl)acetamide]"

# From patent publication US20260250289A1, “BICYCLIC HETEROCYCLES AND THEIR USE AS WRN INHIBITORS” (Novartis AG, priority 2022, published 2026)
